Test results reported in PubChem BioAssay AID1963835 (Molecular Pharmacology Branch, DTP, NCI, 2024).

Test system: 699152-130-R-J1-PDC complex spheroid viability
Assay: Anticancer human tumor 699152-130-R-J1-PDC patient-derived pancreatic carcinoma cell line growth inhibition [POLQ]
Settings: for IC50: curve of first compound; for viability, T/C: stronger effect = lower value
How it was run: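 Complex spheroid viability model combining PDC tumour cells with endothelial (HUVEC) and MSC stromal cells. Novobiocin, ART-558 or RP6685 were tested singly and in combination with standard and investigational anticancer drugs. Each was titrated in half-log steps from near clinical Cmax, or from 10 microM where Cmax was unknown.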

[1] = second compound 0.0316 µM, first compound 0.0316 µM
[2] = second compound 0.0316 µM, first compound 0.1 µM
[3] = second compound 0.0316 µM, first compound 0.316 µM
[4] = second compound 0.0316 µM, first compound 1 µM
[5] = second compound 0.0316 µM, first compound 3.16 µM
[6] = second compound 0.0316 µM, first compound 10 µM
[7] = second compound 0.1 µM, first compound 0.0316 µM
[8] = second compound 0.1 µM, first compound 0.1 µM
[9] = second compound 0.1 µM, first compound 0.316 µM
[10] = second compound 0.1 µM, first compound 1 µM
[11] = second compound 0.1 µM, first compound 3.16 µM
[12] = second compound 0.1 µM, first compound 10 µM
[13] = second compound 0.316 µM, first compound 0.0316 µM
[14] = second compound 0.316 µM, first compound 0.1 µM
[15] = second compound 0.316 µM, first compound 0.316 µM
[16] = second compound 0.316 µM, first compound 1 µM
[17] = second compound 0.316 µM, first compound 3.16 µM
[18] = second compound 0.316 µM, first compound 10 µM
[19] = second compound 1 µM, first compound 0.0316 µM
[20] = second compound 1 µM, first compound 0.1 µM
[21] = second compound 1 µM, first compound 0.316 µM
[22] = second compound 1 µM, first compound 1 µM
[23] = second compound 1 µM, first compound 3.16 µM
[24] = second compound 1 µM, first compound 10 µM
[25] = second compound 3.16 µM, first compound 0.0316 µM
[26] = second compound 3.16 µM, first compound 0.1 µM
[27] = second compound 3.16 µM, first compound 0.316 µM
[28] = second compound 3.16 µM, first compound 1 µM
[29] = second compound 3.16 µM, first compound 3.16 µM
[30] = second compound 3.16 µM, first compound 10 µM
[31] = second compound 10 µM, first compound 0.0316 µM
[32] = second compound 10 µM, first compound 0.1 µM
[33] = second compound 10 µM, first compound 0.316 µM
[34] = second compound 10 µM, first compound 1 µM
[35] = second compound 10 µM, first compound 3.16 µM
[36] = second compound 10 µM, first compound 10 µM
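Note: spheroids exposed to agents for 7 days before viability reading.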
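Throughout, for viability, T/C: percent of DMSO vehicle control viability so 100% = vehicle and 0% = no viable signal.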

C#Cc1c(F)ccc2cc(O)cc(-c3ncc4c(N5CC6CCC(C5)N6)nc(OCC56CCCN5CC(F)C6)nc4c3F)c12 (stereo unspecified) + Cc1cccc(N(C)C(=O)C2C(O)CCN2c2nc(C)cc(C(F)(F)F)c2C#N)c1
IC50 (second compound 0.0316 µM): < 31.6 nM | IC50 (second compound 0.1 µM): < 31.6 nM | IC50 (second compound 0.316 µM): < 31.6 nM | IC50 (second compound 1 µM): < 31.6 nM | IC50 (second compound 3.16 µM): < 31.6 nM | IC50 (second compound 10 µM): < 31.6 nM | viability, T/C [1]: 27.9% | viability, T/C [2]: 17.8% | viability, T/C [3]: 22.6% | viability, T/C [4]: 13.8% | viability, T/C [5]: 12.4% | viability, T/C [6]: 12.1% | viability, T/C [7]: 25.5% | viability, T/C [8]: 16.7% | viability, T/C [9]: 15.5% | viability, T/C [10]: 13.2% | viability, T/C [11]: 13.8% | viability, T/C [12]: 13.1% | viability, T/C [13]: 26.9% | viability, T/C [14]: 18.4% | viability, T/C [15]: 14.5% | viability, T/C [16]: 13.8% | viability, T/C [17]: 14.6% | viability, T/C [18]: 12.4% | viability, T/C [19]: 21.9% | viability, T/C [20]: 20.6% | viability, T/C [21]: 15.3% | viability, T/C [22]: 13.2% | viability, T/C [23]: 15.1% | viability, T/C [24]: 13.8% | viability, T/C [25]: 22.9% | viability, T/C [26]: 17.1% | viability, T/C [27]: 17.4% | viability, T/C [28]: 16.5% | viability, T/C [29]: 15.2% | viability, T/C [30]: 12.8% | viability, T/C [31]: 21.5% | viability, T/C [32]: 18.4% | viability, T/C [33]: 17.1% | viability, T/C [34]: 14.3% | viability, T/C [35]: 13.4% | viability, T/C [36]: 15.3%

CC1COCCN1c1cc(C2(O)CC3CCC(C2)O3)c2cnn(-c3ccn[nH]3)c2n1 (stereo unspecified) + Cc1cccc(N(C)C(=O)C2C(O)CCN2c2nc(C)cc(C(F)(F)F)c2C#N)c1
IC50 (second compound 0.0316 µM): 1990 nM | IC50 (second compound 0.1 µM): 1200 nM | IC50 (second compound 0.316 µM): 1050 nM | IC50 (second compound 1 µM): 1690 nM | IC50 (second compound 3.16 µM): 1740 nM | IC50 (second compound 10 µM): 1940 nM | viability, T/C [1]: 92.1% | viability, T/C [2]: 83.9% | viability, T/C [3]: 64.9% | viability, T/C [4]: 60.6% | viability, T/C [5]: 44.5% | viability, T/C [6]: 33.1% | viability, T/C [7]: 94.6% | viability, T/C [8]: 78.7% | viability, T/C [9]: 60.9% | viability, T/C [10]: 52.2% | viability, T/C [11]: 44% | viability, T/C [12]: 38.6% | viability, T/C [13]: 93% | viability, T/C [14]: 94% | viability, T/C [15]: 64.6% | viability, T/C [16]: 54.3% | viability, T/C [17]: 47.4% | viability, T/C [18]: 39.7% | viability, T/C [19]: 96.3% | viability, T/C [20]: 83.1% | viability, T/C [21]: 66.4% | viability, T/C [22]: 52.8% | viability, T/C [23]: 47.5% | viability, T/C [24]: 37.8% | viability, T/C [25]: 98.2% | viability, T/C [26]: 87.2% | viability, T/C [27]: 62.3% | viability, T/C [28]: 58.8% | viability, T/C [29]: 45% | viability, T/C [30]: 33.6% | viability, T/C [31]: 84.6% | viability, T/C [32]: 81.8% | viability, T/C [33]: 69.7% | viability, T/C [34]: 57.3% | viability, T/C [35]: 44.9% | viability, T/C [36]: 39.1%

O=C(Nc1ccc(O)c(NS(=O)(=O)c2ccc(F)cc2)c1)c1ccc(-c2ccccc2)cc1 + Cc1cccc(N(C)C(=O)C2C(O)CCN2c2nc(C)cc(C(F)(F)F)c2C#N)c1
IC50 (second compound 0.0316 µM): > 10000 nM | IC50 (second compound 0.1 µM): > 10000 nM | IC50 (second compound 0.316 µM): > 10000 nM | IC50 (second compound 1 µM): > 10000 nM | IC50 (second compound 3.16 µM): > 10000 nM | IC50 (second compound 10 µM): > 10000 nM | viability, T/C [1]: 107% | viability, T/C [2]: 91.1% | viability, T/C [3]: 95.9% | viability, T/C [4]: 102% | viability, T/C [5]: 108% | viability, T/C [6]: 78% | viability, T/C [7]: 110% | viability, T/C [8]: 103% | viability, T/C [9]: 100% | viability, T/C [10]: 106% | viability, T/C [11]: 101% | viability, T/C [12]: 78.7% | viability, T/C [13]: 111% | viability, T/C [14]: 104% | viability, T/C [15]: 114% | viability, T/C [16]: 105% | viability, T/C [17]: 98.4% | viability, T/C [18]: 69.3% | viability, T/C [19]: 103% | viability, T/C [20]: 110% | viability, T/C [21]: 111% | viability, T/C [22]: 97% | viability, T/C [23]: 107% | viability, T/C [24]: 83.3% | viability, T/C [25]: 107% | viability, T/C [26]: 112% | viability, T/C [27]: 111% | viability, T/C [28]: 102% | viability, T/C [29]: 114% | viability, T/C [30]: 81.2% | viability, T/C [31]: 89.1% | viability, T/C [32]: 96% | viability, T/C [33]: 103% | viability, T/C [34]: 95.1% | viability, T/C [35]: 97% | viability, T/C [36]: 63.7%
